Laboratory results reported in patent publication US5424326A, “Phenyl-1,2,5-oxadiazolecarboxamide-2-oxides, their preparation and their use” (Cassella Aktiengesellschaft, priority 1992, dated 1995).

tested on: pulmonary artery of the guinea-pig; assay: relaxation of potassium-depolarised pulmonary artery strips of the guinea-pig (CaCl2-induced contraction); details: 40 mmol/l potassium, 0.5 mmol/l CaCl2; cumulative addition; average value of 4 to 6 vessel strips; read-out: IC50 (concentration which inhibits the contraction by 50%)
Protocol: In this method, spiral strips of the pulmonary artery of the guinea-pig are depolarised with 40 mmol/l of potassium after equiliberation in calcium-free Tyrode solution. An addition of 0.5 mmol/l of CaCl2 then induces a contraction.
The relaxing action of the test substance is determined by cumulative addition in 1/2 log 10 graded concentrations.

IC50 | Molecule
5 µM | N-Methyl-3-(3,4-dimethoxyphenyl)-1,2,5-oxadiazole-4-carboxamide-2-oxide [Compound 4a]
0.7 µM | N-Butyl-3-phenyl-1,2,5-oxadiazole-4-carboxamide-2-oxide [Compound 5a]
0.4 µM | N-(3-Diethylaminopropyl)-3-phenyl-1,2,5-oxadiazole-4-carboxamide-2-oxide [Compound 6a]

same assay, conditions: Cavia porcellus; 40 mmol/l potassium, 0.5 mmol/l CaCl2; cumulative addition; average value of 4 to 6 vessel strips; read-out: IC50 (concentration which inhibits the contraction by 50%)

IC50 | Molecule
300 µM | CCOC(=O)[N-]c1cn(N2CCOCC2)n[o+]1 [Molsidomine, reference compound]
1 µM | O=C(NCc1ccncc1)c1no[n+]([O-])c1-c1ccccc1 [Compound 14b]
2 µM | CC(C)N(CCNC(=O)c1no[n+]([O-])c1-c1ccccc1)C(C)C [Compound 12b]
1 µM | NC(=O)CNC(=O)c1c(-c2ccccc2)no[n+]1[O-] [Compound 10a]
0.5 µM | O=C(NCc1ccncc1)c1c(-c2ccccc2)no[n+]1[O-] [Compound 14a]
0.3 µM | COc1ccc(-c2no[n+]([O-])c2C(=O)NCCN(C(C)C)C(C)C)cc1OC [Compound 13a]

The remaining lines, values behind:

Molecule | IC50
O=C(NCc1cccnc1)c1no[n+]([O-])c1-c1ccccc1 [Compound 7b] | 2 µM
O=[N+]([O-])OC1COC2C(O)COC12 (stereo not shown) [Isosorbide-5-mononitrate, reference compound] | > 100 µM
CNC(=O)c1c(-c2ccccc2)no[n+]1[O-] [Compound 1a, N-Methyl-4-phenyl-1,2,5-oxadiazole-3-carboxamide-2-oxide] | 1 µM
O=C(NCc1cccnc1)c1c(-c2ccccc2)no[n+]1[O-] [Compound 7a] | 0.3 µM
